Data published in patent US9387230B2, “Methods to treat cancer using cyclosporine and cyclosporine derivatives” (priority 2011, dated 2016).

Columns and labels:
[1] = tested on: MCF10A wild type (WT) and PTEN knockout (PT−/−) cells; test: crystal violet cell growth, 96 hours after treatment; type: cell-based
Procedure: MCF10A wild type (WT) and PTEN knockout (PT−/−) cells were seeded into 48-well plate with density of 4000 cells/well. The next day, the growth medium was changed to a medium containing Tacrolimus. Medium containing 0.1% DMSO was used as negative control. Ninety-six (96) hours after treatment, the cells were stained with crystal violet for cell growth. The cell growth of negative control group is set as 100%.
The next day, the growth medium was changed to a medium containing CsA (FIG. 9A) or an analog as depicted in each panel in FIG. 9B-D. Medium containing 0.1% DMSO was used as negative control. Ninety-six (96) hours after treatment, the cells were stained with crystal violet for cell growth. The cell growth of negative control group is set as 100%.
Medium containing 0.1% DMSO was used as negative control. Ninety-six (96) hours after treatment, the cells were stained with crystal violet and measured for cell growth. Cell growth of the negative control group is set as 100%.
MCF10A wild type (WT) and PTEN knockout (PT−/−) cells were seeded into 48-well plate with density of 4000 cells/well. The next day, the growth medium was changed to medium containing a compound, CsA or its analogs of Formula III-VIII. Medium containing 0.1% DMSO, was used as a negative control. Ninety six (96) hours after treatment, the cells were stained with crystal violet for cell growth. The cell growth of negative control group was set as 100%.
MCF10A wild type (WT) and PTEN knockout (PT−/−) cells were seeded into 48-well plates at a density of 4000 cells/well. […] Medium containing 0.1% DMSO was used as negative control. Ninety-six (96) hours after treatment, the cells were stained with crystal violet and measured for cell growth. Cell growth of the negative control group was set as 100% (FIG. 10A).

MDA-MB-468 cells (PT−/−) = test: crystal violet cell growth, seven days after treatment; type: cell-based; conditions: MDA-MB-468, seven days; FIG. 10B
Procedure: The next day, the growth medium was changed to medium containing CsA and NIM-811. Medium containing 0.1% DMSO was used as negative control. The medium was replenished once. Seven days after treatment, the cells were stained with crystal violet and measured for cell growth. Cell growth of the negative control group is set as 100%.
MDA-MB-468 cells (PT−/−) were seeded into 48-well plates at a density of 5000 cells/well. The next day, the growth medium was changed to medium containing CsA and NIM-811. Medium containing 0.1% DMSO was used as negative control. The medium was replenished once. Seven days after treatment, the cells were stained with crystal violet and measured for cell growth. Cell growth of the negative control group is set as 100% (FIG. 10B).

Row | Structure (SMILES) | differential inhibition of PT−/− MCF10A cells vs. isogenic wild type cells, compared to CsA ([1]; 96 hours, FIG. 10A) | cell growth inhibition activity compared to CsA (MDA-MB-468 cells (PT−/−)) | preferential killing of PTEN null cells ([1]; MCF10A WT vs PT−/−, FIG. 8) | inhibition of cancer cells ([1]; physiologic dosing, FIG. 8)
1 | C/C=C/C[C@@H](C)[C@@H](O)[C@H]1C(=O)N[C@@H](CC)C(=O)N(C)CC(=O)N(C)[C@@H]([C@@H](C)CC)C(=O)N[C@@H](C(C)C)C(=O)N(C)[C@@H](CC(C)C)C(=O)N[C@@H](C)C(=O)N[C@H](C)C(=O)N(C)[C@@H](CC(C)C)C(=O)N(C)[C@@H](CC(C)C)C(=O)N(C)[C@@H](C(C)C)C(=O)N1C [NIM-811] | increased activity compared to CsA | better cell growth inhibition activity compared to CsA |  | 
2 | C=CC[C@@H]1/C=C(\C)C[C@H](C)C[C@H](OC)[C@H]2O[C@@](O)(C(=O)C(=O)N3CCCC[C@H]3C(=O)O[C@H](/C(C)=C/[C@@H]3CC[C@@H](O)[C@H](OC)C3)[C@H](C)[C@@H](O)CC1=O)[C@H](C)C[C@@H]2OC [tacrolimus] |  |  | does not preferentially kill PTEN null cells | does not inhibit cancer cells at physiologic dosing
